Reference: patent US6479435B1, “Diaryl ethers and processes for their preparation and herbicidal and desiccant compositions containing them” (ISK Americas Incorporated, priority 1997, dated 2002)

Columns and labels:
Format in all cases: in vivo
[1] = tested on: lambsquarters (Chenopodium album, CHEAL); experiment: Pre-emerge greenhouse herbicide test, phytotoxicity rating; conditions: Chenopodium album, pre-emergence, 336 h, 14 days after application, rating scale 0-100; for pest or weed control at 125 g/ha: Rate 125 g al/ha; for pest or weed control at 500 g/ha: Rate 500 g al/ha
Procedure, shortened: (§1)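 Visual 0–100 injury rating (100 = all plants dead) taken 14 days after treatment. Rates of 125–1000 g ai/ha in acetone, 187 l/ha, were sprayed onto soil one day post-sowing; pots were surface-watered to incorporate, then bottom-watered.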

[2] = tested on: Johnsongrass (Sorghum halepense, SORHA); experiment: as above; conditions: Sorghum halepense, pre-emergence, 336 h, 14 days after application, rating scale 0-100; for pest or weed control at 125 g/ha: Rate 125 g al/ha; for pest or weed control at 500 g/ha: Rate 500 g al/ha
Procedure, shortened: as §1

[3] = tested on: redroot pigweed (Amaranthus retroflexus, AMARE); experiment: as above; conditions: Amaranthus retroflexus, pre-emergence, 336 h, 14 days after application, rating scale 0-100; for pest or weed control at 125 g/ha: Rate 125 g al/ha; for pest or weed control at 500 g/ha: Rate 500 g al/ha
Procedure, shortened: as §1

[4] = tested on: green foxtail (Setaria viridis, SETVI); experiment: as above; conditions: Setaria viridis, pre-emergence, 336 h, 14 days after application, rating scale 0-100; for pest or weed control at 125 g/ha: Rate 125 g al/ha; for pest or weed control at 500 g/ha: Rate 500 g al/ha
Procedure, shortened: as §1

[5] = tested on: sicklepod (Cassia obtusifolia, CASOB); experiment: as above; conditions: Senna obtusifolia, pre-emergence, 336 h, 14 days after application, rating scale 0-100; for pest or weed control at 125 g/ha: Rate 125 g al/ha; for pest or weed control at 500 g/ha: Rate 500 g al/ha
Procedure, shortened: as §1

[6] = tested on: barnyardgrass (Echinochloa crusgalli, ECHCG); experiment: as above; conditions: Echinochloa crus-galli, pre-emergence, 336 h, 14 days after application, rating scale 0-100; for pest or weed control at 125 g/ha: Rate 125 g al/ha; for pest or weed control at 500 g/ha: Rate 500 g al/ha
Procedure, shortened: as §1

[7] = tested on: lambsquarters (Chenopodium album, CHEAL); experiment: Post-emerge greenhouse herbicide test, phytotoxicity rating; conditions: Chenopodium album, post-emergence, 336 h, 14 days after application, scale 0-100; for pest or weed control at 63 g/ha: rate 63 g ai/ha; for pest or weed control at 500 g/ha: rate 500 g ai/ha
Procedure, shortened: (§2)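 Scores use a 0 (no damage) to 100 (complete kill) scale, taken 14 days after a foliar spray. Acetone solutions with 0.25% v/v non-ionic surfactant were applied by track sprayer at 187 l/ha and 63-1000 g ai/ha to bottom-watered 2-3 leaf plants.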

[8] = tested on: Johnsongrass (Sorghum halepense, SORHA); experiment: as above; conditions: Sorghum halepense, post-emergence, 336 h, 14 days after application, scale 0-100; for pest or weed control at 63 g/ha: rate 63 g ai/ha; for pest or weed control at 500 g/ha: rate 500 g ai/ha
Procedure, shortened: as §2

[9] = tested on: velvetleaf (Abutilon theophrasti, ABUTH); experiment: as above; conditions: Abutilon theophrasti, post-emergence, 336 h, 14 days after application, scale 0-100; for pest or weed control at 63 g/ha: rate 63 g ai/ha; for pest or weed control at 500 g/ha: rate 500 g ai/ha
Procedure, shortened: as §2

[10] = tested on: redroot pigweed (Amaranthus retroflexus, AMARE); experiment: as above; conditions: Amaranthus retroflexus, post-emergence, 336 h, 14 days after application, scale 0-100; for pest or weed control at 63 g/ha: rate 63 g ai/ha; for pest or weed control at 500 g/ha: rate 500 g ai/ha
Procedure, shortened: as §2

[11] = tested on: ivyleaf morningglory (Ipomoea hederacea, IPOHE); experiment: as above; conditions: Ipomoea, post-emergence, 336 h, 14 days after application, scale 0-100; for pest or weed control at 63 g/ha: rate 63 g ai/ha; for pest or weed control at 500 g/ha: rate 500 g ai/ha
Procedure, shortened: as §2

[12] = tested on: green foxtail (Setaria viridis, SETVI); experiment: as above; conditions: Setaria viridis, post-emergence, 336 h, 14 days after application, scale 0-100; for pest or weed control at 63 g/ha: rate 63 g ai/ha; for pest or weed control at 500 g/ha: rate 500 g ai/ha
Procedure, shortened: as §2

[13] = tested on: sicklepod (Cassia obtusifolia, CASOB); experiment: as above; conditions: Senna obtusifolia, post-emergence, 336 h, 14 days after application, scale 0-100; for pest or weed control at 63 g/ha: rate 63 g ai/ha; for pest or weed control at 500 g/ha: rate 500 g ai/ha
Procedure, shortened: as §2

[14] = tested on: barnyardgrass (Echinochloa crusgalli, ECHCG); experiment: as above; conditions: Echinochloa crus-galli, post-emergence, 336 h, 14 days after application, scale 0-100; for pest or weed control at 63 g/ha: rate 63 g ai/ha; for pest or weed control at 500 g/ha: rate 500 g ai/ha
Procedure, shortened: as §2

[15] = tested on: large crabgrass (Digitaria sanguinalis, DIGSA); experiment: as above; conditions: Digitaria sanguinalis, post-emergence, 336 h, 14 days after application, scale 0-100; for pest or weed control at 63 g/ha: rate 63 g ai/ha; for pest or weed control at 500 g/ha: rate 500 g ai/ha
Procedure, shortened: as §2

| SMILES | pest or weed control at 125 g/ha [1] | pest or weed control at 500 g/ha [1] | pest or weed control at 125 g/ha [2] | pest or weed control at 500 g/ha [2] | pest or weed control at 125 g/ha [3] | pest or weed control at 500 g/ha [3] | pest or weed control at 125 g/ha [4] | pest or weed control at 500 g/ha [4] | pest or weed control at 125 g/ha [5] | pest or weed control at 500 g/ha [5] | pest or weed control at 125 g/ha [6] | pest or weed control at 500 g/ha [6] | pest or weed control at 63 g/ha [7] | pest or weed control at 500 g/ha [7] | pest or weed control at 63 g/ha [8] | pest or weed control at 500 g/ha [8] | pest or weed control at 63 g/ha [9] | pest or weed control at 500 g/ha [9] | pest or weed control at 63 g/ha [10] | pest or weed control at 500 g/ha [10] | further results |
| --- | --- | --- | --- | --- | --- | --- | --- | --- | --- | --- | --- | --- | --- | --- | --- | --- | --- | --- | --- | --- | --- |
| Nn1c(C(F)(F)F)cc(=O)n(-c2cc(Oc3cc(C(F)(F)F)ccn3)c(Cl)cc2F)c1=O [Compound 9-8, 1-Amino-3-[4-chloro-2-fluoro-5-(4-trifluoromethyl-2-pyridyloxy)phenyl]-6-trifluoromethyl-1,2,3,4-tetrahydropyrimidine-2,4-dione] | 100% | 100% | 50% | 99% | 100% | 100% | 40% | 100% | 80% | 90% | 30% | 99% | 95% | 100% | 30% | 90% | 100% | 100% | 100% | 100% | pest or weed control at 63 g/ha [11]: 95%; pest or weed control at 500 g/ha [11]: 100%; pest or weed control at 63 g/ha [12]: 30%; pest or weed control at 500 g/ha [12]: 75%; pest or weed control at 63 g/ha [13]: 30%; pest or weed control at 500 g/ha [13]: 30%; pest or weed control at 63 g/ha [14]: 10%; pest or weed control at 500 g/ha [14]: 95%; pest or weed control at 63 g/ha [15]: 10%; pest or weed control at 500 g/ha [15]: 30% |
| N#Cc1cccnc1Oc1cc(-n2c(=O)cc(C(F)(F)F)n(N)c2=O)c(F)cc1Cl [Compound 9-9, 1-Amino-3-[4-chloro-2-fluoro-5-(3-cyano-2-pyridyloxy)phenyl]-6-trifluoromethyl-1,2,3,4-tetrahydropyrimidine-2,4-dione] | 100% | 100% | 100% | 100% | 100% | 100% | 100% | 100% | 100% | 100% | 100% | 100% | 90% | 100% | 40% | 100% | 100% | 100% | 100% | 100% | pest or weed control at 63 g/ha [11]: 90%; pest or weed control at 500 g/ha [11]: 100%; pest or weed control at 63 g/ha [12]: 20%; pest or weed control at 500 g/ha [12]: 90%; pest or weed control at 63 g/ha [13]: 90%; pest or weed control at 500 g/ha [13]: 100%; pest or weed control at 63 g/ha [14]: 10%; pest or weed control at 500 g/ha [14]: 100%; pest or weed control at 63 g/ha [15]: 10%; pest or weed control at 500 g/ha [15]: 90% |
| N#Cc1ccc(Oc2cc(-n3c(=O)cc(C(F)(F)F)n(N)c3=O)c(F)cc2Cl)nc1 [Compound 9-10, 1-Amino-3-[4-chloro-2-fluoro-5-(5-cyano-2-pyridyloxy)phenyl]-6-trifluoromethyl-1,2,3,4-tetrahydropyrimidine-2,4-dione] | 100% | 100% | 95% | 100% | 100% | 100% | 100% | 100% | 100% | 100% | 90% | 100% | 100% | 100% | 60% | 95% | 100% | 100% | 100% | 80% | pest or weed control at 63 g/ha [11]: 100%; pest or weed control at 500 g/ha [11]: 100%; pest or weed control at 63 g/ha [12]: 20%; pest or weed control at 500 g/ha [12]: 70%; pest or weed control at 63 g/ha [13]: 40%; pest or weed control at 500 g/ha [13]: 50%; pest or weed control at 63 g/ha [14]: 20%; pest or weed control at 500 g/ha [14]: 95%; pest or weed control at 63 g/ha [15]: 10%; pest or weed control at 500 g/ha [15]: 20% |
| Nn1c(C(F)(F)F)cc(=O)n(-c2cc(Oc3ccc([N+](=O)[O-])cn3)c(Cl)cc2F)c1=O [Compound 9-11, 1-Amino-3-[4-chloro-2-fluoro-5-(5-nitro-2-pyridyloxy)phenyl]-6-trifluoromethyl-1,2,3,4-tetrahydropyrimidine-2,4-dione] | 100% | 100% | 20% | 90% | 100% | 100% | 70% | 100% | 10% | 20% | 10% | 80% | 80% | 100% | 20% | 80% | 100% | 100% | 100% | 100% | pest or weed control at 63 g/ha [11]: 100%; pest or weed control at 500 g/ha [11]: 100%; pest or weed control at 63 g/ha [12]: 20%; pest or weed control at 500 g/ha [12]: 40%; pest or weed control at 63 g/ha [13]: 30%; pest or weed control at 500 g/ha [13]: 80%; pest or weed control at 63 g/ha [14]: 0%; pest or weed control at 500 g/ha [14]: 50%; pest or weed control at 63 g/ha [15]: 40%; pest or weed control at 500 g/ha [15]: 80% |
